The source of these data is article PMC10011331, “Vitamin C transporter SVCT1 serves a physiological role as a urate importer: functional analyses and in vivo investigations” (Pflugers Archiv, 2023).

What all share (format): cell-based
For data set [1], the target named is T1, SVCT1 (Homo sapiens, UniProt Q9UHI7).
T1 construct: gene SLC23A1
Put plainly: inhibition of […]-vitamin C uptake in SVCT1-expressing […] cells (urate uptake IC50 […]).

Data set [2] deals with T1, SVCT1. Described as above. The source holds these as a separate data set.
Data set [3] deals with T1, SVCT1. The data set is described as above. This is another data set of the same source.
The target of data set [4] is T2, URAT1 (Homo sapiens, UniProt Q96S37).
T2 construct: gene SLC22A12; full-length human URAT1 WT in pEGFP-C1
T2 sequence (Q96S37 1-553): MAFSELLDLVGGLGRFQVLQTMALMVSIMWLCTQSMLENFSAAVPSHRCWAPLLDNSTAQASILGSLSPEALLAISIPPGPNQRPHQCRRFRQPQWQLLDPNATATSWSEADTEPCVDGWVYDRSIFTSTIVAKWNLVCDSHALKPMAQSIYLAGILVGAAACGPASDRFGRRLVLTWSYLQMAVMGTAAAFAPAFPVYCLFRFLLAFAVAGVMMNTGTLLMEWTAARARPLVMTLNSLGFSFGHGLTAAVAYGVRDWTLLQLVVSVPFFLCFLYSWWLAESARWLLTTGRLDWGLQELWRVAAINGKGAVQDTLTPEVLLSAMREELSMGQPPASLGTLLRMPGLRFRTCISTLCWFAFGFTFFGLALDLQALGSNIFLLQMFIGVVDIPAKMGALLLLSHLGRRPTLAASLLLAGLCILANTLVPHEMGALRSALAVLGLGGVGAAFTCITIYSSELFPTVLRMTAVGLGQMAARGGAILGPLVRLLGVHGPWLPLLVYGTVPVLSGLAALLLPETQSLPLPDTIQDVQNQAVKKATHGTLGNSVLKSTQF
Description: [[…]-14C]-urate uptake in URAT1-expressing HEK293 cells.

For data set [5], the target named is T3, GLUT9a (Homo sapiens, UniProt Q9NRM0).
T3 construct: gene SLC2A9; full-length human GLUT9a/SLC2A9a WT in pEGFP-N1
T3 sequence (Q9NRM0 1-540): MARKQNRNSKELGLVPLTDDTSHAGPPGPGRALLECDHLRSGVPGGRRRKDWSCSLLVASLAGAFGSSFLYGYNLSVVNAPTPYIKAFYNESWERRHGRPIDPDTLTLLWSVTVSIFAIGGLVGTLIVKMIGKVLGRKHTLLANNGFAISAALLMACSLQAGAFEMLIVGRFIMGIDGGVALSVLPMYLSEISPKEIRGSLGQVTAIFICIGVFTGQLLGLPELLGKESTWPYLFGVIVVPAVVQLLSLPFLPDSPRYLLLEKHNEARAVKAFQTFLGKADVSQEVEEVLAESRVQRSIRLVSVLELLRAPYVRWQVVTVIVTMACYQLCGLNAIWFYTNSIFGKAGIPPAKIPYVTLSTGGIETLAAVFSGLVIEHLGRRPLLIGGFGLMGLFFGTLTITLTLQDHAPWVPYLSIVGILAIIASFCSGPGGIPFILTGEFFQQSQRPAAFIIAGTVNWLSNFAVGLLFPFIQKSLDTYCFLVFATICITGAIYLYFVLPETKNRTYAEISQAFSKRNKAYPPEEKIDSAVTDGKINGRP
Put plainly: [[…]-14C]-urate uptake in GLUT9a-expressing cells, high-potassium buffer.

Data set [6] concerns the target T4, ABCG2 (Homo sapiens, UniProt Q9UNQ0).
T4 construct: EGFP-ABCG2 in plasma membrane vesicles from 293A cells
T4 sequence (Q9UNQ0 1-655): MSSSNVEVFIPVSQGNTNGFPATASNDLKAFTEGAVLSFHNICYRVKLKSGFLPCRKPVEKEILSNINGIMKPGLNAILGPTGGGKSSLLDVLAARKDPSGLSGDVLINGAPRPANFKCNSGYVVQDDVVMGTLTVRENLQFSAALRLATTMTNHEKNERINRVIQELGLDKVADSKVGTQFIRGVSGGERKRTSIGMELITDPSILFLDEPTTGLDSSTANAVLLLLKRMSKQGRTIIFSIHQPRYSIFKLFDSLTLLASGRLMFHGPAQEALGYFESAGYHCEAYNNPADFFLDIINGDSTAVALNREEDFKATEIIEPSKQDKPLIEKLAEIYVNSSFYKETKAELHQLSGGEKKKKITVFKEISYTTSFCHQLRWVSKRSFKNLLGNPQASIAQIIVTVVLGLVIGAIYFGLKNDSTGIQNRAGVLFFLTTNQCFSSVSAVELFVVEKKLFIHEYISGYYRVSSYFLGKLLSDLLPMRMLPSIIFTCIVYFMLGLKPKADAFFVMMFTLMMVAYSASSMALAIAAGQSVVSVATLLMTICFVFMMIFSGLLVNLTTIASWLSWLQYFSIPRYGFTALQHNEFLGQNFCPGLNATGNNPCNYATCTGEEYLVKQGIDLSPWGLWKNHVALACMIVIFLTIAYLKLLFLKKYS

Data set [7] addresses T1, SVCT1. Description: […]-vitamin C uptake and inhibition of […]-urate uptake in SVCT1-expressing HEK293 cells.
The target in data set [8] is T5, Svct1 (Mus musculus, UniProt Q9Z2J0).
T5 construct: gene Slc23a1; mouse Svct1 WT, EGFP fusion
Description: […]-vitamin C uptake and inhibition of […]-urate uptake in Svct1-expressing HEK293 cells.

SMILES strings stand for the structures.

T1 sequence (Q9UHI7 whole entry): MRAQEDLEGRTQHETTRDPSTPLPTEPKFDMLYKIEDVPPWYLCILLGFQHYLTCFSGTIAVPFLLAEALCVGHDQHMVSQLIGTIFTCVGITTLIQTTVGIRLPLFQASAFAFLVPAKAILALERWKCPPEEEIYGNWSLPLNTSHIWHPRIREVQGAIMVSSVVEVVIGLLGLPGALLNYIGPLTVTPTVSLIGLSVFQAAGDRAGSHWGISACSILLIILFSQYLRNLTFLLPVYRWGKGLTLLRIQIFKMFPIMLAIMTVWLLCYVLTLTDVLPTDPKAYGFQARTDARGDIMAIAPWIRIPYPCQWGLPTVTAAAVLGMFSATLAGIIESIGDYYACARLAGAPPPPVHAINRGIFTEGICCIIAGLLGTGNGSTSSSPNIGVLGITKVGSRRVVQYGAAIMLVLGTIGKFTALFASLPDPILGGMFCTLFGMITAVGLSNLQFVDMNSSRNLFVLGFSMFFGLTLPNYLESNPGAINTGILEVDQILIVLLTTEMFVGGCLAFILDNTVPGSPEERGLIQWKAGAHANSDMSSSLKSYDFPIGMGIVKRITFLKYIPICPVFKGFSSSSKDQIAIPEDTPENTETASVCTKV
T5 sequence (Q9Z2J0 whole entry, the tested form may be a part): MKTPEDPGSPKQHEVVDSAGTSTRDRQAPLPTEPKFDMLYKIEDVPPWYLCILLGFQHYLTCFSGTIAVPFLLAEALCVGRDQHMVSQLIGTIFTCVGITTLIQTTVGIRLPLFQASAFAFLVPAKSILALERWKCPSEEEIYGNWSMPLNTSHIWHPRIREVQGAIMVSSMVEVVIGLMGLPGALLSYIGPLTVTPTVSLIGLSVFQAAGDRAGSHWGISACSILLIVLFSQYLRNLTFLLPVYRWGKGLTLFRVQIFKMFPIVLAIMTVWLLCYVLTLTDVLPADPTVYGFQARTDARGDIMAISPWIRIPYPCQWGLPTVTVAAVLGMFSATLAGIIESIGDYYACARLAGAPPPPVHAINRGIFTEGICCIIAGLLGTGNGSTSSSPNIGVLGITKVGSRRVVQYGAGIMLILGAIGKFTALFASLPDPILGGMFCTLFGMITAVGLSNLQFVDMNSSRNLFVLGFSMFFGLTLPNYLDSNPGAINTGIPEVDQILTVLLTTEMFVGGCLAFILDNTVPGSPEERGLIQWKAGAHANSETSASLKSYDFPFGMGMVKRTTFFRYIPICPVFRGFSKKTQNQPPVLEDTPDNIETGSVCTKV

One may read the IC50 as the point on the concentration scale where inhibition reaches its midpoint. In data set [1], `CCc1oc2cc(O)ccc2c1C(=O)c1cc(Br)c(O)c(Br)c1` [6-OH BBR, 6-hydroxybenzbromarone] gave an IC50 of 2.86 µM.

For `CCc1oc2ccccc2c1C(=O)c1cc(Br)c(O)c(Br)c1` [BBR, benzbromarone], the IC50 in data set [2] amounted to 8.39 µM.

`O=C(c1cc(Cl)c(O)c(Cl)c1)N1CS(=O)(=O)c2ccccc21` [DU, dotinurad] had an IC50 in data set [3] of 11.8 µM.

Regarding `O=c1[nH]c(=O)c2[nH]c(=O)[nH]c2[nH]1` [urate], the “[8-14C]-urate uptake in URAT1-expressing HEK293 cells” value in data set [4] is given as “Even under appropriate experimental conditions in which urate transport activities were detected, neither URAT1, GLUT9, nor ABCG2 could transport vitamin C”. Moreover, the “[8-14C]-urate uptake in GLUT9a-expressing cells, high-potassium buffer” value in data set [5] is “Even under appropriate experimental conditions in which urate transport activities were detected, neither URAT1, GLUT9, nor ABCG2 could transport vitamin C”. Moreover, the “[8-14C]-urate vesicle transport assay with ABCG2-expressing membrane vesicles” value in data set [6] is reported as “Even under appropriate experimental conditions in which urate transport activities were detected, neither URAT1, GLUT9, nor ABCG2 could transport vitamin C”.

On to `O=C1O[C@H]([C@@H](O)CO)C(O)=C1O` [vitamin C], for which the IC50 in data set [7] was determined as 95.1 µM; in data set [8] it was 130 µM.
